The values below are quoted from earlier work in patent US20050003341A1, “Drug discovery assays based on the biology of atherosclerosis, cancer, and alopecia” (priority 2003, published 2005).

Read-outs that look alike come from different tables or passages of the source.

Data set [1] concerns ACE.
Data set [2] relates to ACE. Particulars: 0.5 mg/kg/day, p<0.05.
Data set [3] has as its system isolated hair follicles. The conditions noted are these: for scalp hair growth: Philpott 1996.
For data set [4], the system named is TF. The conditions noted are these: for Cu^+2 induced procoagulant activity: probucol 20, vitamin E 50, BHT 50, U74389G 20 μmol/L.
The test system of data set [5] is U251.3 glioma cells. Particulars: 3-100 μg/ml, dose dependently.
Data set [6] has as its system VCAM-1. Particulars: 36 dyn/cm^2; 7.0-13.99 minutes.
The test system of data set [7] is NF-κB.
Data set [8] concerns ERK.
For data set [9], the system named is NF-κB. This is another data set of the same source.
Data set [10] deals with TF. The conditions noted are these: cultured monocytes.
For data set [11], the system named is U937. Particulars: p<0.05.
Data set [12] has as its system fibronectin.
Data set [13] concerns AR gene. Particulars: 10^−8 M.
The subject of data set [14] is AT1-receptor. The conditions noted are these: 25 mg/kg/day.
Data set [15] relates to TF. The conditions noted are these: cells incubated with AGE-alb.
The subject of data set [16] is apo(a) transgenic mice. The conditions noted are these: 15 μg, 12 weeks.
Data set [17] relates to cell attachment to fibronectin. The conditions noted are these: for cell attachment to coated plates: six ocular melanoma cell lines (Mac Neil 1994A).
The subject of data set [18] is apoE(−/−) mice. The conditions noted are these: aortic sinus, 48 hours post injection.
The subject of data set [19] is CD18. Particulars: neutrophils, 10^−8 M for 10 min.
For data set [20], the system named is TF.
Where [21] appears, read: a variety of cells, cited studies.
The mark [22] stands for this setting: Peterziel 1999, dependent on presence of AR.

On to `C[C@H](CSC(=O)c1ccccc1)C(=O)N1C[C@@H](Sc2ccccc2)C[C@H]1C(=O)O` [zofenopril], for which, in [1] (1 mg/kg/day), the “macrophage-derived foam cells staining in the intima” value was “significant decrease” and the “native LDL staining in the intima” value was “significant decrease”. Further, the “total lesion area compared to placebo” value in data set [1] (zofenopril 0.05 or 1, captopril 5, enalapril 0.5 mg/kg/day) is on record as “significantly decreased”. In addition, in data set [2], the “decrease in aortic corrected cumulative lesion area” value was 34% and the “decrease in common carotid corrected cumulative lesion area” value is listed as 39%.

On to IL-1β: interleukin 1β, for which, in data set [3] (Hoffmann 1997, 6 days, A 23187 2 μM, TPA 1 μM, IL-1β 100 ng per ml), the hair growth result is given as “significantly inhibited hair growth”. Further, the scalp hair growth entry in data set [3] is listed as “inhibition”.

`[Cu+2]` [Cu^+2]: the procoagulant activity result in data set [4] (10 hours, up to 20 μmol/L, without 8-hydroxyquinoline) is recorded as “no effect”. For the same molecule, the “TF mRNA levels” value in [4] (at 2 hours, relative to basal) is listed as 50%. The “increase in TF mRNA” value in [4] (at 6 hours) was 3.5 fold.

Turning to TNC: large ECM glycoprotein, in data set [5], the migration distance result is on record as “increased migration distance”.

For MCP-1: a chemokine, the “average percent of monocyte remaining bound” value in data set [6] is 46%.

Turning to `CC[C@H](C)C(=O)O[C@H]1CCC=C2C=C[C@H](C)[C@H](CC[C@@H]3C[C@@H](O)CC(=O)O3)[C@H]21` [mevastatin], the NF-κB activation entry in data set [7] (EC) is “inhibited”.

Turning to `CCCCCCCCCCCCCC(=O)O[C@@H]1[C@@H](C)[C@@]2(O)[C@@H](C=C(CO)C[C@]3(O)C(=O)C(C)=C[C@@H]23)[C@@H]2C(C)(C)[C@]12OC(C)=O` [TPA, phorbol 12-myristate 13-acetate], the ERK phosphorylation result in data set [8] (setting [21]) is “increase”.

As for `CNc1ccc2oc(C[C@H]3O[C@@]4(CC[C@H]3C)O[C@H]([C@H](C)C(=O)c3ccc[nH]3)[C@H](C)C[C@H]4C)nc2c1C(=O)O` [A 23187], in data set [8] (setting [21]), the ERK phosphorylation result is “increase”.

For `C[C@]12CCC(=O)C[C@@H]1CC[C@@H]1[C@@H]2CC[C@]2(C)[C@@H](O)CC[C@@H]12` [DHT, Dihydrotestosterone], in data set [8], the ERK phosphorylation result was “**The study reports no increase in ERK phosphorylation in LNCaP or PC-3 cells following treatment with DHT”; the Elk-1 transcription activity entry was “*The study also showed an increase in Elk-1 transcription activity following treatment with the androgen DHT, or the antiandrogens casodex and hydroxyflutamide. ERK phosphorylation activates Elk-1, which is a member of the ETS family”.

Take `C[C@]12C=CC(=O)C=C1CC[C@@H]1C2=CC[C@]2(C)[C@@H](C(=O)CN3CCN(c4cc(N5CCCC5)nc(N5CCCC5)n4)CC3)CC[C@@H]12.O=C(O)/C=C\C(=O)O` [U74389G]: the “Cu^+2 induced procoagulant activity” value in data set [4] is recorded as “inhibited”.

Consider “angiotensin II: angiotensin II (DRVYIHPF; Angiotensin-2; UniProt P01019 25-32, looked up)”, for which, in data set [9] (cultured monocytes and VSMC), the NF-κB activation entry was “increased”. In addition, the “TF antigen and mRNA” value in data set [10] is “dose-depended increase”.

On to `Cc1cc(C(C)(C)C)c(O)c(C(C)(C)C)c1` [BHT], for which, in data set [4], the “Cu^+2 induced procoagulant activity” value is recorded as “inhibited”.

As to `CC(C)CCC[C@@H](C)[C@H]1CC[C@H]2[C@@H]3C(=O)C=C4C[C@@H](O)CC[C@]4(C)[C@H]3CC[C@]12C` [7-ketocholesterol], the “GSH content compared to controls” value in data set [11] is listed as “lower GSH content”.

TNFα: the scalp hair growth result in data set [3] is given as “inhibition”. Moreover, the ERK phosphorylation result in [8] (setting [21]) is listed as “increase”.

Consider `O=C(O)C[C@H](O)C[C@H](O)/C=C/c1c(C2CC2)nc2ccccc2c1-c1ccc(F)cc1` [pitavastatin], for which the NF-κB activation result in data set [7] (human kidney 293 T-cells) was “inhibited”.

For `NCCCCCC(=O)O` [ε-ACA], in [12], the “Lp(a) binding to fibronectin” value was “not effective” and the “plasminogen binding to fibronectin” value is listed as “inhibited”.

Consider `C[C@]1(O)CC[C@H]2[C@@H]3CCC4=CC(=O)CCC4=C3C=C[C@@]21C` [R1881, methyltrienolone], for which the “transcription of the endogenous AR gene, of control levels” value in data set [13] (8 hours) is reported as 85%; in [13] (24 hours) it was 73%.

For `CCCCc1cc(C(=O)OC)cc(=O)n1Cc1ccc(-c2ccccc2-c2nnn[nH]2)cc1F` [Bay 10-6734], the “fat-stained area in the aorta” value in data set [14] (controls 28.6±7.5%) is on record as 5.3±1.4%. For the same molecule, the “% of macrophage stained area/total plaque cross sectional area” value in data set [14] (controls 58.8±15%) was 1±0.2%.

With `CC(=O)N[C@@H](CS)C(=O)O` [NAC, N-acetylcysteine], in data set [15], the TF activity entry is on record as “concentration dependent inhibition”.

Take `CC(C)(O)C(=O)Nc1ccc([N+](=O)[O-])c(C(F)(F)F)c1` [hydroxyflutamide]: the Elk-1 transcription activity entry in [8] (setting [22]) is “*The study also showed an increase in Elk-1 transcription activity following treatment with the androgen DHT, or the antiandrogens casodex and hydroxyflutamide. ERK phosphorylation activates Elk-1, which is a member of the ETS family”.

Take `CC[C@H]1CN2CCc3cc(OC)c(OC)cc3[C@@H]2C[C@@H]1C[C@H]1NCCc2cc(OC)c(OC)cc21` [emetine]: the “c-mos expression and ERK phosphorylation” value in data set [8] (starfish eggs) is “inhibition”.

estrogen: in data set [8] (setting [21]), the ERK phosphorylation result is recorded as “increase”.

For the molecule `CC/C(=C(\c1ccccc1)c1ccc(OCCN(C)C)cc1)c1ccccc1` [tamoxifen], in [16], the “decrease in area of focal apo(a) accumulation” value is listed as 97%, the “decrease in average level of apo(a) in the vessel wall” value is on record as 69%, the “decrease in lesion area” value is listed as 92% and the “decrease in number of lipid lesions” value is recorded as 80%. Further, in data set [17] (ZR75-1 breast cancer cells (Millon 1989)), the “cell attachment to ECM, fibronectin, collagen type I or IV” value is reported as “decreased attachment”. The “cell attachment to fibronectin” value in data set [17] (retinal pigment epithelial (RPE) cells (Wagner 1995)) is on record as “decreased attachment”. In [17], the “cell attachment to coated plates” value is listed as “significant inhibition”.

On to `C[C@H](CCC(=O)O)C[C@H](C)C[C@H](C)C(=O)/C=C(\O)[C@H](C)C[C@H](C)C/C=C/[C@@H](C)[C@@H](O)[C@@H](C)[C@@H](O)C[C@@H]1CC[C@@](C)([C@H]2CC[C@@](C)([C@@H](C)O)O2)O1` [ionomycin], for which the “cell attachment to coated plates” value in data set [17] was “Significant inhibition”.

On to `CCCCCCCCCCCCCCCC(=O)OC[C@H](COP(=O)([O-])OCC[N+](C)(C)C)OC(=O)CCCCCCCCCCCCCCC` [DPPC, dipalmitoylphosphatidylcholine], for which the macrophage content in data set [18] (saline 10.4±3.4) is given as 9.3±5.8 % of plaque area. In addition, the lipid content in data set [18] (saline 19.6±6.3) is on record as 18.1±4.7 % of plaque area.

Consider `CC(C)(Sc1cc(C(C)(C)C)c(O)c(C(C)(C)C)c1)Sc1cc(C(C)(C)C)c(O)c(C(C)(C)C)c1` [probucol], for which the “Cu^+2 induced procoagulant activity” value in [4] is on record as “inhibited”.

For the molecule apo(a): apolipoprotein(a), the “plasminogen binding to fibronectin” value in data set [12] is listed as “completely abolished”.

With `CSCC[C@H](NC=O)C(=O)N[C@@H](CC(C)C)C(=O)N[C@@H](Cc1ccccc1)C(=O)O` [fMLP, N-formylmethionyl-leucyl-phenylalanine], the “increase in CD18 surface membrane concentration compared to unstimulated cells” value in [19] was 4 fold.

In the case of vitamin E, in [4], the “LPS induced TF expression” value is on record as “inhibited” and the “Cu^+2 induced procoagulant activity” value is reported as “inhibited”.

As for `CC(O)(CS(=O)(=O)c1ccc(F)cc1)C(=O)Nc1ccc(C#N)c(C(F)(F)F)c1` (centres unmarked) [casodex], the Elk-1 transcription activity entry in data set [8] (setting [22]) was “*The study also showed an increase in Elk-1 transcription activity following treatment with the androgen DHT, or the antiandrogens casodex and hydroxyflutamide. ERK phosphorylation activates Elk-1, which is a member of the ETS family”.

Take `CCOC(=O)[C@H](CCc1ccccc1)N[C@@H](C)C(=O)N1Cc2ccccc2C[C@H]1C(=O)O` [quinapril]: the “NF-κB activity in atherosclerotic vessels” value in [9] (rabbit femoral arteries) was “decreased”.

As to `CC1=C(/C=C/C(C)=C/C=C/C(C)=C/C(=O)O)C(C)(C)CCC1` [ATRA, all-trans retinoic acid], in data set [20] (LPS 10 μg/ml 1 hour, ATRA 10^−5 mol/L 30 minutes before LPS), the “rate of TF transcription, nuclear run-on” value was “decreased TF transcription”. Also, the “TF mRNA” value in data set [20] (THP-1, 30 minutes, 10^−5 mol/L) is on record as “decrease”. In addition, the “LUC activity relative to untreated cells” value in data set [20] (pTF(−2106)LUC transfected THP-1, 30 minutes, 10^−5 mol/L) was “no decrease”.

B1: IL-1a: interleukin 1α (protein, UniProt P01583 113-271, looked up)
Interleukin-1 alpha: SAPFSFLSNVKYNFMRIIKYEFILNDALNQSIIRANDQYLTAAALHNLDEAVKFDMGAYKSSKDDAKITVILRISKTQLYVTAQDEDQPVLLKEMPEIPKTITGSETNLLFFWETHGTKNYFTSVAHPNLFIATKQDYWVCLAGGPPSITDFQILENQA
As to B1, in [3], the scalp hair growth entry was “inhibition”.
